According to patent US9144594B2, “Cathepsin L mediated diseases and associated methods and products” (University of Miami, priority 2005, dated 2015):
Entries after “also recorded” stand apart in the source; their conditions may differ.

Tests used:
[1] = tested on: podocytes; experiment: Podocyte motility, modified Boyden chamber assay; type: cell-based, mouse; details: for podocyte motility, in words: adenoviral overexpression
Source text: This study examined the role of dynamin in actin dynamics of podocytes. An adenoviral expression system was utilized to obtain expression of various dynamin mutants with more than 90% infection efficiency in cultured differentiated mouse podocytes and analyzed the organization of the actin cytoskeleton, their migratory and endocytotic behavior (FIG. 1). […] This type of actin rearrangement in cultured podocytes is resembling actin rearrangement in damaged podocytes during proteinuria in situ (Smoyer and Mundel, 1998). […] Thus, the consequence on actin dynamics in podocytes was examined when dynamin is hyperactive by expressing known dominant activators, dynK694A and dynR725A (SEQ ID NO.4). Both mutants are predicted to live longer in the GTP-bound form. […] To further examine this surprising phenotype in a biological context, motility assays were performed next using a modified Boyden Chamber assay.
Podocyte migration was analyzed using a 12-well chemotaxis chamber (Neuro Probe) according to the manufacturer's protocol. In brief, differentiated podocytes were treated with 50 μg/ml of LPS or PAN for 24 h and then harvested for the migration assay. Bottom plates were coated with type-I collagen, while upper plates were loaded with equal number of cells (5×10^4) suspended in medium. The chamber was incubated at 37° C. for 4 h before unassembled. The membrane was then taken out, processed and finally stained with diamidino phenylindole (DAPI) (Vector). The average number of migrated cells was counted in four fields in six independent experiments.
Podocytes were grown under non-permissive conditions to 70% confluence. Cells were washed twice with 1×PBS and infected with 1.2 ml of serum-free DMEM media containing 100 μl transactivator virus, 100 μl virus expressing dyn1 or dyn2. After 2 h of infection at 37° C., media containing virus was replaced with full DMEM. If cells were treated with LPS or PAN, 50 μg/ml of LPS or 50 μg/ml PAN was added at this point. 18-24 h post-infection, cells were detached using trypsin and processed either for subcellular fractionation or tested in the motility assays as described in (Reiser et al., J Biol Chem 279, 34827-34832 (2004)). When stated, 20 μM of Z-FF-FMK CatL specific inhibitor (Calbiochem, San Diego, Calif.) was added simultaneously with addition of LPS.

[2] = tested on: LPS induced mouse proteinuria model; experiment: LPS induced mouse proteinuria model, protein in urine (prevention and reversal by dynamin gene delivery); type: in vivo; details: for protection from LPS-induced proteinuria, in words: gene delivery immediately before LPS injection; for reversal of established proteinuria, in words: injected at 48 hours, analyzed 12 hours post injection
[3] = Table 2B Prevention, 2xLPS, t = 0
[4] = Table 2B Prevention, 2xLPS, t = 10 h
[5] = Table 2C Reversal, LPS at 0 and 24 h, t = 0

## dynWT: wild type dynamin overexpressed by adenovirus or delivered as dynamin 1 cDNA
[1]
  podocyte motility, in words: did not change podocyte motility
[2]; [3]
  Protein in the urine: 0.28 ± 0.07 mg/mL
[2]; [4]
  Protein in the urine: 0.27 ± 0.07 mg/mL
[2]; Table 2B Prevention, 2xLPS, t = 24 h, listed as Dyn WT
  Protein in the urine: 0.63 ± 0.12 mg/mL
[2]; Table 2B Prevention, 2xLPS, t = 24 h, listed as wildtype dynamin
  Protein in the urine: 0.63 mg/mL
[2]; Table 2B Prevention, 2xLPS, t = 48 h, listed as Dyn WT
  Protein in the urine: 1.18 ± 0.23 mg/mL
[2]; Table 2B Prevention, 2xLPS, t = 48 h, listed as wildtype dynamin
  Protein in the urine: 1.18 mg/mL
[2]; [5]
  Protein in the urine: 0.30 ± 0.10 mg/mL
[2]; Table 2C Reversal, t = 48 h, at gene transfer, listed as Dyn WT
  Protein in the urine: 1.17 ± 0.18 mg/mL
[2]; Table 2C Reversal, t = 48 h, at gene transfer, listed as wildtype dynamin
  Protein in the urine: 1.26 mg/mL
[2]; Table 2C Reversal, t = 58 h, 10 hours after gene transfer, listed as Dyn WT
  Protein in the urine: 1.10 ± 0.17 mg/mL
[2]; Table 2C Reversal, t = 58 h, 10 hours after gene transfer, listed as wildtype dynamin
  Protein in the urine: 1.32 mg/mL
[2]
  protection from LPS-induced proteinuria, in words: did not protect against these changes
  reversal of established proteinuria, in words: did not reduce proteinuria

B1: dynR725A: dynamin mutant (SEQ ID NO.4) with impaired GTP hydrolysis capacity (protein, listed as Homo sapiens)
chain: MGNRGMEDLIPLVNRLQDAFSAIGQNADLDLPQIAVVGGQSAGKSSVLENFVGRDFLPRGSGIVTRRPLVLQLVNATTEYAEFLHCKGKKFTDFEEVRLEIEAETDRVTGTNKGISPVPINLRVYSPHVLNLTLVDLPGMTKVPVGDQPPDIEFQIRDMLMQFVTKENCLILAVSPANSDLANSDALKVAKEVDPQGQRTIGVITKLDLMDEGTDARDVLENKLLPLRRGYIGVVNRSQKDIDGKKDITAALAAERKFFLSHPSYRHLADRMGTPYLQKVLNQQLTNHIRDTLPGLRNKLQSQLLSIEKEVEEYKNFRPDDPARKTKALLQMVQQFAVDFEKRIEGSGDQIDTYELSGGARINRIFHERFPFELVKMEFDEKELRREISYAIKNIHGIRTGLFTPDMAFETIVKKQVKKIREPCLKCVDMVISELISTVRQCTKKLQQYPRLREEMERIVTTHIREREGRTKEQVMLLIDIELAYMNTNHEDFIGFANAQQRSNQMNKKKTSGNQDEILVIRKGWLTINNIGIMKGGSKEYWFVLTAENLSWYKDDEEKEKKYMLSVDNLKLRDVEKGFMSSKHIFALFNTEQRNVYKDYRQLELACETQEEVDSWKASFLRAGVYPERVGDKEKASETEENGSDSFMHSMDPQLERQVETIRNLVDSYMAIVNKTVRDLMPKTIMHLMINNTKEFIFSELLANLYSCGDQNTLMEESAEQAQRADEMLRMYHALKEALSIIGDINTTTVSTPMPPPVDDSWLQVQSVPAGRRSPTSSPTPQRRAPAVPPARPGSRGPAPGPPPAGSALGGAPPVPSRPGASPDPFGPPPQVPSRPNRAPPGVPSRSGQASPSRPESPRPPFDL
[1]; LPS-treated podocytes
  LPS-induced increase in podocyte motility, in words: blocked the LPS-induced increase in podocyte motility
[1]
  podocyte motility, in words: significantly decreased podocyte motility; also recorded: decreasing motility
[2]; [3]
  Protein in the urine: 0.17 ± 0.07 mg/mL
[2]; [4]
  Protein in the urine: 0.23 ± 0.07 mg/mL
[2]; Table 2B Prevention, 2xLPS, t = 24 h
  Protein in the urine: 0.20 mg/mL
[2]; Table 2B Prevention, 2xLPS, t = 48 h, listed as Dyn R725A
  Protein in the urine: 1.25 ± 0.26 mg/mL
[2]; Table 2B Prevention, 2xLPS, t = 48 h, listed as R725A
  Protein in the urine: 1.25 mg/mL
[2]; [5]
  Protein in the urine: 0.28 ± 0.08 mg/mL
[2]; Table 2C Reversal, t = 48 h, at gene transfer
  Protein in the urine: 1.15 mg/mL
[2]; Table 2C Reversal, t = 48 h, at gene transfer, listed as Dyn R725A
  Protein in the urine: 1.15 ± 0.15 mg/mL
[2]; Table 2C Reversal, t = 58 h, 10 hours after gene transfer
  Protein in the urine: 0.38 mg/mL
[2]; Table 2C Reversal, t = 58 h, 10 hours after gene transfer, listed as Dyn R725A
  Protein in the urine: 0.38 ± 0.20 mg/mL
[2]
  protection from LPS-induced proteinuria, in words: completely inhibited development of proteinuria after 24 hours
  reversal of established proteinuria, in words: almost complete reversal of proteinuria
